# Reference: ChEMBL document CHEMBL1201862, “PubChem BioAssay data set” (2004)
# The source made the active and inactive calls.
# What was measured:
# [1] = P. falciparum Dd2 growth inhibitors, dose response, SYBR Green, cherry-picked samples (AID 1159567); assay type: functional, cell-based
# Fatty acid synthase [2] = molecular target: T1, Fatty acid synthase (Homo sapiens, UniProt P49327); test: inhibition of human FAS-TE enzyme activity – biochemical, endpoint fluorescence intensity, uHTS hits, dose response (AID 624327); assay type: functional;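 further: fluorescence from hydrolysis of an O-methyl fluorescein acyl ester substrate by the enzyme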
# T1 sequence (P49327 whole entry): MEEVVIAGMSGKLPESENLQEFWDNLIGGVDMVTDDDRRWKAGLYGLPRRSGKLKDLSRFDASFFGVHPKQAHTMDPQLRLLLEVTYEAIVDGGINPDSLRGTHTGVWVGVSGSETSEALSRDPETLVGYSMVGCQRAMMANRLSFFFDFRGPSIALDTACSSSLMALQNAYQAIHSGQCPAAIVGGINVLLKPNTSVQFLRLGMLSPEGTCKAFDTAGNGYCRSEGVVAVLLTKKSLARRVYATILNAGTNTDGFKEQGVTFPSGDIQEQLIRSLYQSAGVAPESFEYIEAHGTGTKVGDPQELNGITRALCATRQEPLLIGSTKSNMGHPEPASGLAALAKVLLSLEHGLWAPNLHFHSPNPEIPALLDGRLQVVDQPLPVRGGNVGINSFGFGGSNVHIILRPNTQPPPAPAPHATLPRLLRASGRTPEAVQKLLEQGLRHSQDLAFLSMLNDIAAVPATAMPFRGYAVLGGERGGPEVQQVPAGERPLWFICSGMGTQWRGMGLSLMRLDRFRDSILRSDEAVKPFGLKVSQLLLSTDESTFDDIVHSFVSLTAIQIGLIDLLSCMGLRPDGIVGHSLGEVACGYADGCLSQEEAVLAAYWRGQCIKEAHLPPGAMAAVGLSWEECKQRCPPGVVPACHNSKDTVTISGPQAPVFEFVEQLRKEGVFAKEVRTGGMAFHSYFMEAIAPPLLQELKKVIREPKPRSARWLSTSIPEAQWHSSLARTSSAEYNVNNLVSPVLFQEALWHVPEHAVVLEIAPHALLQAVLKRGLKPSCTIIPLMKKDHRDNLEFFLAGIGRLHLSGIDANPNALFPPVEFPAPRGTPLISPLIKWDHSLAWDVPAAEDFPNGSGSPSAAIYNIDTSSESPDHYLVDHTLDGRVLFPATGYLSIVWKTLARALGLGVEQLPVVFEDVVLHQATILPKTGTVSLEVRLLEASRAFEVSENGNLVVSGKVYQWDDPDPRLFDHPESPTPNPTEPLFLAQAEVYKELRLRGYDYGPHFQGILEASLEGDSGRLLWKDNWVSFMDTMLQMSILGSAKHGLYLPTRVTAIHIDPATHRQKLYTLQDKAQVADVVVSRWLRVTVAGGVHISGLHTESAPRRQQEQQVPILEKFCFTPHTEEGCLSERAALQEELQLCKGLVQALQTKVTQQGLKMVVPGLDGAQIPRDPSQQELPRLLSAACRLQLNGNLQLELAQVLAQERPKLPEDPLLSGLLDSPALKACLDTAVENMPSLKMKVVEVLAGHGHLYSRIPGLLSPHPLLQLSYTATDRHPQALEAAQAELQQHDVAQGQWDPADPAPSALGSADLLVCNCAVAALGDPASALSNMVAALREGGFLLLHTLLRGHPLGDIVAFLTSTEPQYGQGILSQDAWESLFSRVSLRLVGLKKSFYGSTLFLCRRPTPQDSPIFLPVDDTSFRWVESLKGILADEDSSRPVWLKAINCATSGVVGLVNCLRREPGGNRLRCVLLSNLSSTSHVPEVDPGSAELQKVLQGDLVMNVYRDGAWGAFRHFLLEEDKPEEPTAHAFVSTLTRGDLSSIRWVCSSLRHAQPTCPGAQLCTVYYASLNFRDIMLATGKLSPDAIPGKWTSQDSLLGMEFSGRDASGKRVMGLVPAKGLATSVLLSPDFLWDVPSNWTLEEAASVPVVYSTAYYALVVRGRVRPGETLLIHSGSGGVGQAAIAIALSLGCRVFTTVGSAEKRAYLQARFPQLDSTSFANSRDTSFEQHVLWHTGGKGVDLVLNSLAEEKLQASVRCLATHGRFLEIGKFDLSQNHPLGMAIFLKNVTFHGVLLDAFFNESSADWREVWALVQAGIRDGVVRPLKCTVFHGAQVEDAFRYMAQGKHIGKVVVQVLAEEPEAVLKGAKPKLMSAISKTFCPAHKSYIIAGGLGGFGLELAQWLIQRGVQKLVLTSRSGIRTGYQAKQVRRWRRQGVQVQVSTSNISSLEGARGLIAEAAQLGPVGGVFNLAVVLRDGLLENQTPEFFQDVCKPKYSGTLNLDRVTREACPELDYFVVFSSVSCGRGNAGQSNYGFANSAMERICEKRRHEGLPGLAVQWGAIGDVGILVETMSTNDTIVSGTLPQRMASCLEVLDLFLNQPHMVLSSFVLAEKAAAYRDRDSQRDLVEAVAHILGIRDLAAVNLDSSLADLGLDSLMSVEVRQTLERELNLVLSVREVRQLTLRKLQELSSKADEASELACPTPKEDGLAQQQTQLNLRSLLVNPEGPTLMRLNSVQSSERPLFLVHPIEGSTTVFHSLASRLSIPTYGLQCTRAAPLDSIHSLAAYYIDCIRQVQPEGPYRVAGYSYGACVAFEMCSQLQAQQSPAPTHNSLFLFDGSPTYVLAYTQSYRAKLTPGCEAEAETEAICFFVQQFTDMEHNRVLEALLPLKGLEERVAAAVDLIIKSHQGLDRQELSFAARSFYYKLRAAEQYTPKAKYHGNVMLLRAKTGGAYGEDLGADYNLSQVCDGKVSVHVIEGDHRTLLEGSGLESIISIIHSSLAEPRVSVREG
# Fatty acid synthase [3] = molecular target: T1, Fatty acid synthase; test: inhibition of human FAS-TE enzyme activity – biochemical, kinetic fluorescence intensity, dose response (AID 624326); assay type: functional;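 further: rate of fluorescence rise from hydrolysis of a fluorogenic O-methyl fluorescein ester substrate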
# Leucine aminopeptidase = molecular target: T2, Leucine aminopeptidase (Plasmodium falciparum 3D7, UniProt Q8IL11); test: P. falciparum M17LAP inhibitors, primary screen, biochemical, fluorogenic H-Leu-NHMec substrate, 1536-well (AID 1619); assay type: functional
# T2 sequence (Q8IL11 whole entry): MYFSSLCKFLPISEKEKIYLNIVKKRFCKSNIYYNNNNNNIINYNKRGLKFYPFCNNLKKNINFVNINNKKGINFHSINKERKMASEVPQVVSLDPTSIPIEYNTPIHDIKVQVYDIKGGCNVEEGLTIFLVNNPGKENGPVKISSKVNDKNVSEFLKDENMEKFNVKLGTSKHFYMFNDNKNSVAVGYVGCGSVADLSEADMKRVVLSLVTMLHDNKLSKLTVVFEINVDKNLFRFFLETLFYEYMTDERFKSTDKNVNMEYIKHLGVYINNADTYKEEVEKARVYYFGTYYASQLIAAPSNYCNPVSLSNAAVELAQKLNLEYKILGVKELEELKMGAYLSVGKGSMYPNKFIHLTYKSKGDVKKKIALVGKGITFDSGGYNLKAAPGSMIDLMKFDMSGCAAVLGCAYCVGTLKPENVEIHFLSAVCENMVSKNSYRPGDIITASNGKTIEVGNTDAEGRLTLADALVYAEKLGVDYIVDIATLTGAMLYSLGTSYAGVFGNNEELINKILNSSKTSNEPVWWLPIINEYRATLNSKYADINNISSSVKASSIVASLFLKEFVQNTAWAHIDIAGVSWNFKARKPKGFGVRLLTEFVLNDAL
# [4] = Luminescence Cell-Based Dose Response HTS to Identify Activators of Luciferase Translation or Activity in H4 […] Cells. [Related pubchem assays: 1829 (Project Summary), 1814 (Primary HTS)]; assay type: functional
# [5] = Luminescence Cell-Based Dose Confirmation HTS to Identify Activators of 5'UTR Stem-Loop Driven Alpha-Synuclein mRNA Translation in H4 Neuroglioblastoma Cells. [Related pubchem assays: 1829 (Project Summary), 1814 (Primary HTS)]; assay type: functional
# H4 = test: Luminescence Cell-Based Dose Response HTS to Identify Activators of 5'UTR Stem-Loop Driven Prion Protein mRNA Translation in H4 Neuroglioblastoma Cells. [Related pubchem assays: 1829 (Project Summary), 1814 (Primary HTS)]; assay type: functional; details: Homo sapiens
# Genome polyprotein = Genome polyprotein (dengue virus type 2, UniProt P29990); test: flavivirus cap methylation enzyme inhibition – biochemical, confirmation dose response, primary screen (AID 588689); assay type: functional
# Sequence of Genome polyprotein (P29990 2492-3391 limits assumed): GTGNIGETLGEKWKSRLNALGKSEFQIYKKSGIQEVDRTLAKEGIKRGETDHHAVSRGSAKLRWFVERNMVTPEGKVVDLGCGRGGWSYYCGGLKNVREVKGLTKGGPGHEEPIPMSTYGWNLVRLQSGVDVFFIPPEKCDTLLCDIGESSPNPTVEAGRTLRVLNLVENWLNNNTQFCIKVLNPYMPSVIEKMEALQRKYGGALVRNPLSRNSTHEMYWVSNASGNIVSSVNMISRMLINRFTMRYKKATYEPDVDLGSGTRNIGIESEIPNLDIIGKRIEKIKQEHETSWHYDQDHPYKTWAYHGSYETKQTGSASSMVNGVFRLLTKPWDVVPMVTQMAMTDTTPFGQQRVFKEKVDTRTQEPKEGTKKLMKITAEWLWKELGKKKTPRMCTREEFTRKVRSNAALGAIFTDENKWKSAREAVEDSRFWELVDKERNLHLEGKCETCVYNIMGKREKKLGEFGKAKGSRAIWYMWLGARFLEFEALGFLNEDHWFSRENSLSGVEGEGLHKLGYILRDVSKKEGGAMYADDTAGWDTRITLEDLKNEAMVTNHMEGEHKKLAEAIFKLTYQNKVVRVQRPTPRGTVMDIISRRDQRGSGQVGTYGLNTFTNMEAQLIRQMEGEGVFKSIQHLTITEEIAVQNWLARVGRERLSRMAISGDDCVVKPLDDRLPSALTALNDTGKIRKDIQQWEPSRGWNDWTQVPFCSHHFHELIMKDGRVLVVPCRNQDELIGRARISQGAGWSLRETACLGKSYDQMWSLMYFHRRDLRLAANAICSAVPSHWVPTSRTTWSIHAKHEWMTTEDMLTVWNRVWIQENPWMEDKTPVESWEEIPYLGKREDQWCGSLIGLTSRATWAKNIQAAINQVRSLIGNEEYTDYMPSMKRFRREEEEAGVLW
# [6] = molecular target: T3, Zinc finger protein mex-5 (Caenorhabditis elegans, UniProt Q9XUB2); test: potency of MEX-5 RNA-binding blockers – biochemical, C. elegans, fluorescence polarization, dose response (AID 1960)
# T3 sequence (Q9XUB2 whole entry): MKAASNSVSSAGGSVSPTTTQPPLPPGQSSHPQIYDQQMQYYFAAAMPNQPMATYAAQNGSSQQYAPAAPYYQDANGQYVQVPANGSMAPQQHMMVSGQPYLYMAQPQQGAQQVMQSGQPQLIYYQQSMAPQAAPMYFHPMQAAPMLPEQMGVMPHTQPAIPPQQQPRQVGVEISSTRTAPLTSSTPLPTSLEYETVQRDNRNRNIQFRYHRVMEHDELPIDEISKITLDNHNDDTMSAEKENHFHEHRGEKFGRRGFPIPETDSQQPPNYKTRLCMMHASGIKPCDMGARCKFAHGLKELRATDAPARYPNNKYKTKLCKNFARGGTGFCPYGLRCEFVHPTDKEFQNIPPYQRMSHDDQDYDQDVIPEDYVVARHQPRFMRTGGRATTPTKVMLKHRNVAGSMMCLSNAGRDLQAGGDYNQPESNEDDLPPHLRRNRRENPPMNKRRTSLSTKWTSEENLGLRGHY
# [7] = molecular target: T4, RNA-binding protein pos-1 (Caenorhabditis elegans, UniProt G5EF15); test: disruptors of C. elegans POS-1 RNA interaction – biochemical, fluorescence polarization, dose response (AID 1964);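 further: purified POS-1 fused to maltose binding protein made in E. coli; potency of compounds blocking POS-1 binding to fluorescent RNA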
# T4 sequence (G5EF15 whole entry): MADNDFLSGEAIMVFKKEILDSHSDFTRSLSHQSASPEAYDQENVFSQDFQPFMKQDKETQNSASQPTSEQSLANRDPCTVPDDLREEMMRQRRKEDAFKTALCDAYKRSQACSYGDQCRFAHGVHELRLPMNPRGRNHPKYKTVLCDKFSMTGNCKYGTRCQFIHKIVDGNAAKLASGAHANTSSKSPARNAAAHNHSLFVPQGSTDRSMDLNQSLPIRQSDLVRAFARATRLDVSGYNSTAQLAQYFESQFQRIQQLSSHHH
# [8] = molecular target: FAD-linked sulfhydryl oxidase ALR (Homo sapiens, UniProt P55789); test: ALR-catalysed DTT oxidation blockers – biochemical, H2O2 detection, luminescence, cherry-pick, dose response (AID 493248)
# Sequence of FAD-linked sulfhydryl oxidase ALR (P55789 whole entry): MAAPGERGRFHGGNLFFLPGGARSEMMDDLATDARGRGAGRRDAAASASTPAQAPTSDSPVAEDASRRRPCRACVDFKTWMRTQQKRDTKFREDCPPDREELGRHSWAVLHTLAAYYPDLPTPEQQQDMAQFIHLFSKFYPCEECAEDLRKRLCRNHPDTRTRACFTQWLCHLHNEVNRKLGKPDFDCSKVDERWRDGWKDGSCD
compound,measurement,setting,value
CO[C@H]1CN(C)C(=O)c2ccc(NC(=O)Nc3ccc(C(F)(F)F)cc3)cc2OC[C@@H](C)NC[C@@H]1C,AC50,[1],9.45 µM (active)
Cc1cc(Br)ccc1NC(=O)CN(C)C(=O)c1cc([N+](=O)[O-])ccc1N1CCOCC1,IC50,Fatty acid synthase [2],8.23 µM (active)
same,IC50,Fatty acid synthase [3],4.65 µM (active)
O=C1CS/C(=C\S(=O)(=O)c2ccc(Cl)cc2)N1,IC50,Leucine aminopeptidase,40 µM (active)
Cc1cc(-c2nnc3n2N=C(c2ccc(F)cc2)CS3)[nH]n1,EC50,[4],> 120 µM (not active)
same,EC50,[5],> 120 µM (not active)
same,EC50,H4,> 120 µM (not active)
Nc1c(Br)cc(Br)c2c1C(=O)c1c(cccc1S(=O)(=O)O)C2=O,IC50,Genome polyprotein,96.1 µM (active)
COC(=O)CC(NC(=O)Nc1ccc(C)cc1)c1cccc([N+](=O)[O-])c1 (stereo not drawn),IC50,Fatty acid synthase [2],11.5 µM (active)
same,IC50,Fatty acid synthase [3],8.7 µM (active)
Cc1nn(CCOc2ccc(Br)cc2)c(C)c1[N+](=O)[O-],IC50,Fatty acid synthase [2],15.9 µM (active)
same,IC50,Fatty acid synthase [3],24.6 µM (inactive)
O=C(O)CN1C(=O)/C(=C\c2ccccc2OCc2ccc(F)cc2)SC1=S,IC50,Genome polyprotein,43.2 µM (active)
COc1ccc(C(=O)C[n+]2ccccc2C=NO)cc1,EC50,[4],12.1 µM (active)
same,EC50,[5],12.5 µM (active)
same,EC50,H4,32 µM (active)
O=C(Nc1nc(=O)n(C(=O)C2CC2)s1)c1ccccc1,IC50,Leucine aminopeptidase,40.7 µM (active)
Cc1nn(-c2cc(C)c3ccccc3n2)c2c1CCC2,EC50,[4],18.8 µM (active)
same,EC50,[5],4.27 µM (active)
same,EC50,H4,80.3 µM (active)
Cc1ccc(S(=O)(=O)c2cc3c(=O)n4ccccc4nc3n(CCc3ccccc3)c2=N)cc1,EC50,[6],3.75 µM (inconclusive)
same,EC50,[7],111 µM (inconclusive)
same,EC50,[4],> 120 µM (not active)
same,EC50,[5],97.9 µM (active)
same,EC50,H4,0.713 µM (active)
CC(=O)N(C(C)=O)N1C(=O)C2C3c4ccccc4C(c4ccccc43)C2C1=O (stereo not drawn),IC50,Genome polyprotein,53.8 µM (active)
O=C(O)CC12CC3CC(C1)CC(n1ncc(NCc4ccc5c(c4)OCO5)c(Cl)c1=O)(C3)C2,IC50,Leucine aminopeptidase,40.6 µM (active)
Cc1[nH]c2ccccc2c1C(=O)COc1ccccc1,EC50,[4],16.4 µM (active)
same,EC50,[5],18.7 µM (active)
same,EC50,H4,13.2 µM (active)
CCN(CCCNC(=O)CNC(=O)Cn1cnc2ccccc2c1=O)c1ccccc1,AC50,[8],0.729 µM (active)
COc1ccc(C2CC23N=C(c2ccccc2)OC3=O)cc1 (stereo not drawn),IC50,Fatty acid synthase [2],0.724 µM (active)
same,IC50,Fatty acid synthase [3],0.712 µM (active)
COc1cccc(/C=C/c2nc(O)nc(O)c2[N+](=O)[O-])c1O,AC50,[8],39.1 µM (active)
same,IC50,Genome polyprotein,72.5 µM (active)
COCCCn1c(SCC(=O)Nc2ccc(C(C)=O)cc2)nc2ccccc2c1=O,EC50,[4],22.8 µM (active)
same,EC50,[5],13.9 µM (active)
same,EC50,H4,68.6 µM (active)
O=C1CN(C(=O)c2cc([N+](=O)[O-])ccc2Cl)C(c2ccccc2)c2cc(F)ccc2N1 (stereo not drawn),IC50,Fatty acid synthase [2],1.36 µM (active)
same,IC50,Fatty acid synthase [3],1.99 µM (active)
CCCC(=O)N1CC2(C1)CN(Cc1ccc(Cl)cc1)[C@@H](CO)c1[nH]c3cc(OC)ccc3c12,AC50,[1],5.26 µM (active)
CC(C)c1ccc(/C=C2\SC(=O)N(CC(=O)NCCCn3ccnc3)C2=O)cc1,AC50,[8],1.75 µM (active)
same,EC50,[4],0.418 µM (active)
same,EC50,[5],29.8 µM (active)
same,EC50,H4,18.7 µM (active)
COc1ccc(C(=O)CCN2CCc3cc(OC)c(OC)cc3C2)cc1,AC50,[8],1.84 µM (active)
CCC(=O)N1[C@H](CO)[C@H](c2ccc(C3=CCCCC3)cc2)[C@H]1CNCC1CCC1,AC50,[1],3.46 µM (active)
CCSc1nnc(-c2c[nH]c3ccccc23)o1,EC50,[4],21.1 µM (active)
same,EC50,[5],63.9 µM (active)
same,EC50,H4,24.7 µM (inconclusive)
NNC(=O)c1cccc(COc2ccccc2Br)c1,AC50,[8],> 100 µM (inactive)
N=C(NOC(=O)c1ccco1)c1ccc(Cl)cc1,AC50,[8],13.1 µM (active)
CSc1ccc(Cl)c(C(=O)OCC(=O)NCc2ccco2)c1,IC50,Leucine aminopeptidase,49.9 µM (active)
CN1C[C@H](C(=O)NC2(C)OC3(O)[C@@H]4CCCN4C(=O)[C@H](Cc4ccccc4)N3C2=O)CC2c3cccc4[nH]cc(c34)C[C@H]21 (stereo partly drawn),IC50,Fatty acid synthase [2],10.3 µM (active)
same,IC50,Fatty acid synthase [3],11.8 µM (active)
O=C(NCCc1cccs1)C1CC(c2ccc([N+](=O)[O-])cc2)=NO1 (stereo not drawn),EC50,[4],50.8 µM (active)
same,EC50,[5],118 µM (active)
same,EC50,H4,16.2 µM (active)
O=C(Cn1cnc2ccccc2c1=O)Nc1ccc2c(c1)CCC2,IC50,Leucine aminopeptidase,5.23 µM (active)
Cc1cccc(CSC2=NCCN2C(=O)c2ccco2)c1,AC50,[8],11 µM (active)
Nc1[nH]nc2nc(N3CCOCC3)nc(-c3ccccc3)c12,IC50,Leucine aminopeptidase,6.77 µM (active)
Cc1ccc2c(c1)C(=O)C(=O)N2CCCOc1ccccc1C,IC50,Genome polyprotein,> 100 µM (active)
CCc1ccc(NC(=O)c2[nH]c(C)c(C(C)=O)c2C)cc1,EC50,[4],2.6 µM (active)
same,EC50,[5],1.62 µM (active)
CCOc1ccc(CCNC(=O)COC(=O)c2cc([N+](=O)[O-])ccc2N2CCOCC2)cc1OCC,IC50,Fatty acid synthase [2],10.1 µM (active)
same,IC50,Fatty acid synthase [3],9.59 µM (active)
FC(F)(F)c1c[nH]c2c(-c3ccccc3)nnc-2c1,EC50,[4],19.3 µM (active)
same,EC50,[5],1.29 µM (active)
same,EC50,H4,13.9 µM (active)
Cc1ccc(NC2CCCN(C(=O)Cc3nonc3C)C2)cc1C (stereo not drawn),AC50,[8],2.54 µM (active)
CO[C@H]1CN(C)C(=O)c2cc(NC(=O)c3cc(C)on3)ccc2OC[C@H](C)N(C(=O)C2CC2)C[C@H]1C,AC50,[1],4.96 µM (active)
O=C(Nn1c(C2CCCCC2)nc2ccccc2c1=O)c1ccc([N+](=O)[O-])cc1Cl,IC50,Fatty acid synthase [2],19.3 µM (active)
same,IC50,Fatty acid synthase [3],18.9 µM (active)
COc1ccc(C(=O)NCCNc2ncc(C(F)(F)F)cc2Cl)cc1[N+](=O)[O-],IC50,Fatty acid synthase [2],12.7 µM (active)
same,IC50,Fatty acid synthase [3],12 µM (active)
COC(=O)c1ccc(NS(=O)(=O)NC(=O)c2cn(C)c3ccccc23)cc1,EC50,[4],> 120 µM (not active)
same,EC50,[5],> 120 µM (not active)
same,EC50,H4,> 120 µM (not active)
